ChEMBL document CHEMBL3351445, “Potent 11β-hydroxylase inhibitors with inverse metabolic stability in human plasma and hepatic S9 fractions to promote wound healing” (J Med Chem, 2014)

Legend:
[1] = molecular target: T1, Cytochrome P450 11B2, mitochondrial (Homo sapiens, UniProt P19099); assay: Inhibition of human CYP11B2 expressed in hamster V79MZh cells using [1,2-3H]-11-deoxycorticosterone as substrate
T1 sequence (P19099 whole entry): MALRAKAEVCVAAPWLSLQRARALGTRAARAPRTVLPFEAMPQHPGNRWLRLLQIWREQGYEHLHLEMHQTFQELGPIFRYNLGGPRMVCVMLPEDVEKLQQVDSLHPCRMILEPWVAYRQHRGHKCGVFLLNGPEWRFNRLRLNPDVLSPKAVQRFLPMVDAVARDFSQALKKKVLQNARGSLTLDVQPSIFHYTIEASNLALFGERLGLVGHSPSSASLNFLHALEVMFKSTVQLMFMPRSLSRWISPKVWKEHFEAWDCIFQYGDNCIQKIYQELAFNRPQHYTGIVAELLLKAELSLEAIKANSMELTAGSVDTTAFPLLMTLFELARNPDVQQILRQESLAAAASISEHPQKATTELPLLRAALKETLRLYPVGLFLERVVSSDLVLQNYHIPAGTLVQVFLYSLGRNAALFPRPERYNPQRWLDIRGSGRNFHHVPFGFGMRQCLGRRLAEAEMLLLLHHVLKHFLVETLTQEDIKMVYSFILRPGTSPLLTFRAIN

[2] = molecular target: T2, Cytochrome P450 11B1, mitochondrial (Homo sapiens, UniProt P15538); assay: Inhibition of human CYP11B1 expressed in hamster V79MZh cells using [1,2-3H]-11-deoxycorticosterone as substrate
T2 sequence (P15538 whole entry): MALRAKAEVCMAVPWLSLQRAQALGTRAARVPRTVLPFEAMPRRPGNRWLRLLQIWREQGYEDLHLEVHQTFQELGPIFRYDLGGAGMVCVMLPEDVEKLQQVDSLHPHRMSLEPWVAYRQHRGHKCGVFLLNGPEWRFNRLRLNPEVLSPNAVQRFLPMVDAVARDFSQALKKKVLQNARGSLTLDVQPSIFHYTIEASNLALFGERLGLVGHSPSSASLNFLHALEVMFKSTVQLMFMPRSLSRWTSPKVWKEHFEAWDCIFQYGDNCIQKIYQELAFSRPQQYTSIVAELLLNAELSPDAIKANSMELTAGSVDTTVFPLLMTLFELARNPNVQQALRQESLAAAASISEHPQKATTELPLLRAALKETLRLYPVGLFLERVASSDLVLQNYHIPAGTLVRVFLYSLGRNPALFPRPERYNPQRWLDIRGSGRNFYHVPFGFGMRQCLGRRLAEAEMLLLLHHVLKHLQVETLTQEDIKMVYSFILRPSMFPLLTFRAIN

CYP19 (aromatase) = molecular target: T3, CYP19 (aromatase) (Homo sapiens, UniProt P11511); assay: Inhibition of human placental CYP19 using [1beta-3H]androstenedione as substrate at 2 uM by 3H2O-method; settings: human placental CYP19, probe [1beta-3H]androstenedione
T3 sequence (P11511 whole entry): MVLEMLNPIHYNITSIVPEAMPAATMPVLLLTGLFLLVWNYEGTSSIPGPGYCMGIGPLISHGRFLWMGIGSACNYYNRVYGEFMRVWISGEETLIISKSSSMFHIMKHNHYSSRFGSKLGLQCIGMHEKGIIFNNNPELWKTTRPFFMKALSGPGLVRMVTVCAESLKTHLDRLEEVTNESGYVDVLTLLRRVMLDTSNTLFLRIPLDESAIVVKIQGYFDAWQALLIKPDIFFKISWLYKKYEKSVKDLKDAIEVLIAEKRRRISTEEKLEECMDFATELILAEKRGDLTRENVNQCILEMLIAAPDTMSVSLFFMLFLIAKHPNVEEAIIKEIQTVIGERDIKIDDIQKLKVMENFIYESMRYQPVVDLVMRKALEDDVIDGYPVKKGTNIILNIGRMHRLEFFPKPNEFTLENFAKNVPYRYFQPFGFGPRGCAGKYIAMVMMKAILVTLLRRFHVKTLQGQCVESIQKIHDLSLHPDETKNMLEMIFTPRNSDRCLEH

CYP17 = molecular target: T4, CYP17 (Homo sapiens, UniProt P05093); assay: Inhibition of human CYP17 expressed in Escherichia coli using progesterone as substrate at 2 uM; settings: probe progesterone
T4 sequence (P05093 whole entry): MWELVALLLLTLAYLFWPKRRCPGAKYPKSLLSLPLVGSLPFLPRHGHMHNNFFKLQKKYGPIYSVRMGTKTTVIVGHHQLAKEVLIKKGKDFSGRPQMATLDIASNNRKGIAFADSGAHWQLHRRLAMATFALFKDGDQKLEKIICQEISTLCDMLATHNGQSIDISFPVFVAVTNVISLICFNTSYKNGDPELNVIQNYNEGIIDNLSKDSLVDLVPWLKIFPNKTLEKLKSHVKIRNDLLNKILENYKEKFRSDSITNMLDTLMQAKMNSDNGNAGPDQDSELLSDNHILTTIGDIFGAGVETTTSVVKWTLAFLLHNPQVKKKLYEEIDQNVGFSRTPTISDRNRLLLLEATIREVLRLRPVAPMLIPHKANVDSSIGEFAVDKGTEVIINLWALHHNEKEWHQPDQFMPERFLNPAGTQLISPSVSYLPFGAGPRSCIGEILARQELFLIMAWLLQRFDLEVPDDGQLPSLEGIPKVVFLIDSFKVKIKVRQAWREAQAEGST

V79MZh [3] = assay: Selectivity ratio of IC50 for human placental CYP19 to IC50 for human CYP11B1 expressed in hamster V79MZh cells; assay type: cell-based
V79MZh [4] = assay: Selectivity ratio of IC50 for human CYP17 expressed in Escherichia coli to IC50 for human CYP11B1 expressed in hamster V79MZh cells
Salmonella typhimurium [5] = assay: Mutagenicity in Salmonella typhimurium TA7001/7002/7003/7004/7005/7006 up to 100 uM by Ames II assay in presence of S9 fraction; assay type: toxicity, organism-based; settings: salmonella enterica subsp. enterica serovar typhimurium
Salmonella typhimurium [6] = assay: Mutagenicity in Salmonella typhimurium TA98 up to 100 uM by Ames II assay; assay type: toxicity, organism-based; settings: salmonella enterica subsp. enterica serovar typhimurium
Salmonella typhimurium [7] = assay: Mutagenicity in Salmonella typhimurium TA98 up to 100 uM by Ames II assay in presence of S9 fraction; assay type: toxicity, organism-based; settings: salmonella enterica subsp. enterica serovar typhimurium
[8] = Half life in human liver S9 fraction by LC-MS/MS analysis; assay type: ADME, subcellular
Salmonella typhimurium [9] = assay: Mutagenicity in Salmonella typhimurium TA7001/7002/7003/7004/7005/7006 up to 100 uM by Ames II assay; assay type: toxicity, organism-based; settings: salmonella enterica subsp. enterica serovar typhimurium
[10] = Half life in human plasma by LC-MS/MS analysis; assay type: ADME, cell-free

| SMILES | IC50 [1] [µM] | IC50 [2] [µM] | also measured |
| --- | --- | --- | --- |
| N#Cc1ccc(S(=O)(=O)N2CCCc3cc(-c4cccnc4)ccc32)cc1 | 0.557 | 0.114 | – |
| COc1cccc(S(=O)(=O)N2CCCc3cc(-c4ccncc4)ccc32)c1 | – | > 5 | – |
| COc1cccc(S(=O)(=O)Nc2ccc(-c3cccnc3)cc2)c1 | 0.85 | 0.188 | – |
| COc1cccc(S(=O)(=O)N(C)c2ccc(-c3cccnc3)cc2)c1 | 0.239 | 0.068 | – |
| O=S(=O)(c1ccc(Cl)cc1)N1CCCc2cc(-c3cccnc3)ccc21 | 0.469 | 0.137 | – |
| N#Cc1cccc(S(=O)(=O)N2CCCc3cc(-c4cccnc4)ccc32)c1 | 0.429 | 0.065 | – |
| COc1cccc(S(=O)(=O)N(Cc2ccccc2)c2ccc(-c3cccnc3)cc2)c1 | – | 2 | – |
| O=S(=O)(C1CCCCC1)N1CCCc2cc(-c3cccnc3)ccc21 | – | 1.17 | – |
| O=S(=O)(c1ccc(OC(F)(F)F)cc1)N1CCCc2cc(-c3cccnc3)ccc21 | – | 0.929 | – |
| O=S(=O)(c1ccccc1)N1CCCc2cc(-c3cccnc3)ccc21 | 0.295 | 0.065 | – |
| O=S(=O)(c1ccc2ccccc2c1)N1CCCc2cc(-c3cccnc3)ccc21 | – | 0.663 | – |
| O=S(=O)(c1cccc(F)c1)N1CCc2cc(-c3cccnc3)ccc21 | 0.85 | 0.327 | – |
| O=S(=O)(c1cccc(OC(F)(F)F)c1)N1CCCc2cc(-c3cccnc3)ccc21 | 0.322 | 0.382 | – |
| O=S(=O)(c1cccc(F)c1)N1CCCc2cc(-c3cccnc3)ccc21 | 0.196 | 0.071 | – |
| COc1cccc(S(=O)(=O)N2CCCc3cc(Cc4ccncc4)ccc32)c1 | 0.005 | 0.006 | inhibition at 2 µM (CYP19 (aromatase)): 88%; inhibition at 2 µM (CYP17): 14%; Ratio IC50 (V79MZh [3]): > 60; Ratio IC50 (V79MZh [4]): > 60 |
| COc1cccc(S(=O)(=O)N2CCc3cc(-c4cccnc4)cnc32)c1 | – | 0.587 | – |
| Cc1ccc(S(=O)(=O)N2CCCc3cc(-c4cccnc4)ccc32)cc1 | 0.555 | 0.278 | – |
| COc1cccc(S(=O)(=O)N2CCCc3cc(Cc4cccnc4)ccc32)c1 | 0.008 | 0.005 | Activity (Salmonella typhimurium [5]): Non-toxic; inhibition at 2 µM (CYP19 (aromatase)): 26%; inhibition at 2 µM (CYP17): 9%; Activity (Salmonella typhimurium [6]): Non-toxic; Activity (Salmonella typhimurium [7]): Non-toxic; Ratio IC50 (V79MZh [3]): > 60; half-life [8]: 16 min; Activity (Salmonella typhimurium [9]): Non-toxic; Ratio IC50 (V79MZh [4]): > 60; half-life [10]: > 150 min |
| O=S(=O)(c1cccc(C(F)(F)F)c1)N1CCCc2cc(-c3cccnc3)ccc21 | 0.607 | 0.309 | – |
| O=S(=O)(c1cccs1)N1CCCc2cc(-c3cccnc3)ccc21 | 0.259 | 0.06 | – |
| O=S(=O)(c1ccc(F)cc1)N1CCCc2cc(-c3cccnc3)ccc21 | 0.26 | 0.049 | – |
| O=S(=O)(c1cccc(Cl)c1)N1CCCc2cc(-c3cccnc3)ccc21 | 0.344 | 0.062 | – |
| CC(C)(C(=O)c1cccnc1)c1cccnc1 [METYRAPONE] | – | – | half-life [8]: 49 min |
| COc1cccc(S(=O)(=O)N2CCc3cc(-c4ccncc4)cnc32)c1 | – | 1.75 | – |
| COc1cccc(S(=O)(=O)N2CCc3cc(-c4cccnc4)ccc32)c1 | 0.251 | 0.111 | – |
| Cc1cccc(S(=O)(=O)N2CCCc3cc(-c4cccnc4)ccc32)c1 | 0.205 | 0.026 | inhibition at 2 µM (CYP19 (aromatase)): 29%; inhibition at 2 µM (CYP17): 9%; Ratio IC50 (V79MZh [3]): > 60; Ratio IC50 (V79MZh [4]): > 60 |
| O=S(=O)(c1ccc(C(F)(F)F)cc1)N1CCCc2cc(-c3cccnc3)ccc21 | – | 1.22 | – |
| COc1cccc(S(=O)(=O)N2CCCc3cc(-c4cccnc4)ccc32)c1 | 0.085 | 0.028 | inhibition at 2 µM (CYP19 (aromatase)): 32%; inhibition at 2 µM (CYP17): 11%; Ratio IC50 (V79MZh [3]): > 60; Ratio IC50 (V79MZh [4]): > 60 |
| COc1ccc(S(=O)(=O)N2CCCc3cc(-c4cccnc4)ccc32)cc1 | 0.519 | 0.334 | – |
